Test results: patent publication US20240376163A1, “PEPTIDE FOR INHIBITING CALCINEURIN AND USE THEREOF” (Seoul National University R&DB Foundation, priority 2023, published 2024)

Columns and labels:
NFATC2 = assay: NFAT mobility shifting assay in Jurkat T cells; format: cell-based; conditions: PMA and ionomycin
Description: In FIG. 2A, a luciferase reporter assay was performed to measure NFAT transcriptional activity. Jurkat T cells expressing GST-tagged peptides were treated with PMA and ionomycin for activation. Jurkat T cells expressing only GST were used as negative controls, and cells treated with 0.5 μM FK506 were used as positive controls (n=3). In FIG. 2B, an NFAT mobility shifting assay was performed using Jurkat T cells expressing HA-mCherry-tagged peptides. For dephosphorylation of NFATC2, Jurkat T cells were treated with PMA and ionomycin for 2 hours. In FIG. 2C, the hyperphosphorylated and hypophosphorylated NFATC2 of FIG. 2B was measured using ImageJ, and the hypo/hyper ratio was calculated (n=7). In FIG. 2D, snapshot images of the indicated peptides and activated Jurkat T cells expressing tNFATC2 were obtained using a confocal microscope. Expression and intracellular localization of peptides and tNFATC2 are indicated by mCherry (red) and EGFP (green), respectively. […] In FIG. 2E, tNFATC2 located in the nucleus was measured by calculating a ratio at which Hoechst (M1) and EGFP (M2) were present together. […] The data were repeated independently as many times as described and are expressed as means±standard deviation. Statistical differences were determined using two-sided Student's t-test (A, C) or one-way analysis of variance (E). *** p<0.001, NC: negative control. […]

tNFATC2 = assay: Confocal microscopy of nuclear-localized tNFATC2 in Jurkat T cells; format: cell-based; conditions: activated Jurkat T cells
Description: Jurkat T cells were transfected with pCAG-EGFP-tNFATC2-IRES-mCherry-peptide by electroporation. Two days later, these cells were pretreated with […] for 30 min. Afterwards, they were treated with 40 nM PMA and 1 μM ionomycin for 4 hours under culture conditions. Nuclei were stained by treating these cells with 10 μg/ml Hoechst 33342 (Invitrogen, Waltham, MA, USA) before imaging with a confocal laser scanning microscopy (Nikon, Tokyo, Japan). Colocalization analysis of […] and Hoechst was performed with ImageJ and corresponding plug-in JACoP to measure the Manders coefficient (Manders, E. M. et al., J. Cell Sci. 103, 857-862 (1992), Bolte, J. Microsc. 224, 213-232 (2006)).

calcineurin = assay: Calcineurin cellular activity assay in Jurkat T cells; format: cell-based; conditions: Jurkat T cells expressing peptide or treated with FK506
Description: Calcineurin phosphatase activity was measured in vitro using the Calcineurin phosphatase assay kit (BML-AK804, Enzo Life Sciences, Farmingdale, NY, USA). GST or GST-tagged peptides were cultured with CNA for 30 min at room temperature and then performed according to the manufacturer's instructions. Jurkat T cells were transiently transfected with CAG-HA-mCherry-peptide by electroporation endogenous calcineurin phosphatase activity. After 24 hours, the Jurkat T cells were pretreated with FK506 for 1 hour before activation with PMA and ionomycin. Thereafter, the cells were washed with TBS buffer (20 mM Tris, pH 7.2, 150 mM NaCl), resuspended with lysis buffer in a calcineurin cell activity assay kit (BML-AK816, Enzo Life Sciences), and stored on ice for 30 min. Lysate supernatants were collected by gel filtration using Desaltting Column Resin included in the kit, free phosphate was removed, and performed according to the manufacturer's instructions.

CNAβ2 = molecular target: T1, CNAβ2 (Homo sapiens, UniProt P16298); assay: Mammalian two-hybrid assay (GAL4 DBD-peptides, VP16 AD-CNAβ2, pG5-luc) in HEK293T cells; format: cell-based; conditions: HEK293T
T1 construct: expressed in transfected cells; host or cells: HEK293T
Description: (§1) To measure the transcriptional activity of NFAT, Jurkat T cells were cotransfected with GST-tagged peptides and NFAT-luc by electroporation. After 24 hours, the cells were pretreated with 0.5 μM FK506 for 1 hour and then treated with 40 nM PMA and 1 μM ionomycin for 8 hours. For mammalian two-hybrid assay, HEK293T cells were cotransfected with GAL4 DBD-tagged CABIN1, VIVIT, chimeric, and substituted peptides, VP16 activation domain-tagged CNAβ2, and pG5-luc (a luciferase reporter plasmid containing the GAL4 reaction promoter) for 24 hours. Harvested cells were lysed with luciferase assay lysis buffer (17 mM KH2PO4, 183 mM K2HPO4, pH 7.8, 0.2% [v/v] Triton X-100) and sonicated briefly. The luciferase activity against each cell lysate was measured using Infinite M200 (Tecan, Männedorf, and Switzerland). In addition, the expression level of the transfected protein was confirmed by Western blotting.

Jurkat T cells = assay: Real-time quantitative PCR of T-cell activation genes in Jurkat T cells; format: cell-based
Description: Jurkat T cells were collected by QIAzol Lysis Reagent (Qiagen) to extract total RNA. cDNA was reverse transcribed from the isolated RNA using AMV Reverse Transcriptase and random hexamers. Real-time quantitative PCR for each cDNA was performed using TB Green® Premix Ex Taq™ (TaKaRa, Kusatsu, Japan) in the CFX Connect Real-time PCR Detection System (Bio-Rad, Hercules, CA, USA), and normalized to expression of 18S rRNA or GAPDH.

[1] = system: NFAT transcriptional activity; assay: NFAT luciferase reporter assay in Jurkat T cells expressing GST-tagged peptides; format: cell-based; conditions: PMA and ionomycin treatment
Description: as §1

p38a = p38a (Homo sapiens, UniProt Q16539); assay: In vitro kinase assay; format: biochemical; conditions: purified GST-tagged peptide
Description: (§2) Purified GST-tagged peptides were used for the in vitro kinase assay using activated recombinant kinase obtained from Proqinase GmbH (Freiburg, Germany). Kinase reactions were induced in reaction buffer (50 mM HEPES-NaOH, pH 7.5, 3 mM MgCl2, 3 mM MnCl2, 3 μM sodium orthobanadate, 1 mM dithiothreitol, 50 μM unlabeled ATP, 5 μCi 32P-γ-ATP) for 1 hour at 30° C. The reaction was stopped by the addition of 5× sample buffer, and proteins were isolated using SDS-PAGE. The gels were stained with Coomassie Brilliant Blue, dried, and developed on X-ray film.

ERK2 = molecular target: T2, ERK2 (Homo sapiens, UniProt P28482); assay: In vitro kinase assay; format: biochemical; conditions: purified GST-tagged peptide
T2 construct: purchased Proqinase GmbH (Freiburg, Germany)
Description: as §2

JNK1 = molecular target: T3, JNK1 (Homo sapiens, UniProt P45983); assay: In vitro kinase assay; format: biochemical; conditions: purified GST-tagged peptide
T3 construct: purchased Proqinase GmbH (Freiburg, Germany)
Description: as §2

T1 sequence (P63098 2-170 partner limits assumed, other chains not shown): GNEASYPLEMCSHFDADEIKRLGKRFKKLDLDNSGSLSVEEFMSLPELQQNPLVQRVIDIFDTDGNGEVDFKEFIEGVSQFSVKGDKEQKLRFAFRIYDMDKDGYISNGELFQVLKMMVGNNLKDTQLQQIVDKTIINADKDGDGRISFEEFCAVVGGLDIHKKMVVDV
T2 sequence (P28482 whole entry): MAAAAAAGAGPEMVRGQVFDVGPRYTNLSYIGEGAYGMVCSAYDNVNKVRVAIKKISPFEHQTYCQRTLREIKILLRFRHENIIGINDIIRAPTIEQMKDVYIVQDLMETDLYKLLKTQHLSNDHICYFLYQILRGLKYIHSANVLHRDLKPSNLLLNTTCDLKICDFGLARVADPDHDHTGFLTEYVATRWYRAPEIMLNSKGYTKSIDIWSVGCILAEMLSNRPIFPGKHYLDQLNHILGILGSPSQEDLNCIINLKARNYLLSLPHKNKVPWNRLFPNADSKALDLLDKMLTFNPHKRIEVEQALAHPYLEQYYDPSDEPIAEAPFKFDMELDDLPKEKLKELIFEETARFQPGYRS
T3 sequence (P45983 whole entry): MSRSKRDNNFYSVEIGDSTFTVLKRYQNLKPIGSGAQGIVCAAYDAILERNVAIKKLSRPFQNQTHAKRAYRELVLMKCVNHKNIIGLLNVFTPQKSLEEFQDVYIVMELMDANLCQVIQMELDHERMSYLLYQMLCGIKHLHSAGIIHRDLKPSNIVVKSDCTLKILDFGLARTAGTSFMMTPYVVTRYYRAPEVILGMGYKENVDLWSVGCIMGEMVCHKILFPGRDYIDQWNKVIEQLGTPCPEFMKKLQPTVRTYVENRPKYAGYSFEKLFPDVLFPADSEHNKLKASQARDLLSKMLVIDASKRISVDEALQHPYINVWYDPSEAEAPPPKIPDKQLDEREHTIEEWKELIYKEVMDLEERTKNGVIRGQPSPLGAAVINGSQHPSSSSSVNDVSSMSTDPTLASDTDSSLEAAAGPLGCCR
p38a, sequence (Q16539 whole entry): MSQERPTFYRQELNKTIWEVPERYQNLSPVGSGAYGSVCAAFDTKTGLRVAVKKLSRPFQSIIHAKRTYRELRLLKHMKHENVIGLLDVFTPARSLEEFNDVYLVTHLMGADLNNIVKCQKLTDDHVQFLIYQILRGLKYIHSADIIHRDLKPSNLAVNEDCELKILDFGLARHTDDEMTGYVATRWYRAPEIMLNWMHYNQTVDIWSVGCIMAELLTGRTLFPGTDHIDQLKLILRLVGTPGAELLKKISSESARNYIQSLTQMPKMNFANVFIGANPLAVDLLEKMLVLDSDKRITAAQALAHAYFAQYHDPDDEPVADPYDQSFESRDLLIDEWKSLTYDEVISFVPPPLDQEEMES

Molecule: C=CC[C@@H]1/C=C(\C)C[C@H](C)C[C@H](OC)[C@H]2O[C@@](O)(C(=O)C(=O)N3CCCC[C@H]3C(=O)O[C@H](/C(C)=C/[C@@H]3CC[C@@H](O)[C@H](OC)C3)[C@H](C)[C@@H](O)CC1=O)[C@H](C)C[C@@H]2OC [FK506, Tacrolimus, reference compound]
- NFATC2 band shift (dephosphorylation) (NFATC2): significantly inhibited NFATC2 band shift
- proportion of nuclear-localized tNFATC2 (tNFATC2): lowest
- calcineurin phosphatase activity in cells (calcineurin): reduced the phosphatase activity of CNA

Molecule: PEITVTPPTP [CABIN1-L-1-2]
- effect of ionomycin treatment on interaction with CNA (CNAβ2; 1 μM ionomycin): did not affect the interaction
- binding to CNA (CNAβ2; GAL4 DBD-tagged peptides, VP16 activation domain-tagged CNA): still bound to CNA
- RNA levels of T-cell activation genes by qRT-PCR (Jurkat T cells): reduced RNA levels of these genes more effectively than VIVIT peptides
- NFAT transcriptional activity (luciferase activity) [1]: inhibited luciferase activity compared to the negative control
- inhibitory effect on NFAT luciferase activity relative to VIVIT peptide [1]: approximately 4 times
- NFATC2 band shift (dephosphorylation) (NFATC2): significantly inhibited NFATC2 band shift
- proportion of nuclear-localized tNFATC2 (tNFATC2): slightly higher
- phosphorylation by p38a (p38a): phosphorylate
- phosphorylation by ERK2 (ERK2): phosphorylate
- phosphorylation by JNK1 (JNK1): phosphorylate
